SMILES strings stand for the structures. Counter-ions that a name gives are not always drawn.

The target in this assay is T1, Human recombinant enteropeptidase (Homo sapiens, UniProt P98073).
T1 construct: purchased ITSI-Biosciences LLC #REN-260
T1 sequence (P98073 whole entry): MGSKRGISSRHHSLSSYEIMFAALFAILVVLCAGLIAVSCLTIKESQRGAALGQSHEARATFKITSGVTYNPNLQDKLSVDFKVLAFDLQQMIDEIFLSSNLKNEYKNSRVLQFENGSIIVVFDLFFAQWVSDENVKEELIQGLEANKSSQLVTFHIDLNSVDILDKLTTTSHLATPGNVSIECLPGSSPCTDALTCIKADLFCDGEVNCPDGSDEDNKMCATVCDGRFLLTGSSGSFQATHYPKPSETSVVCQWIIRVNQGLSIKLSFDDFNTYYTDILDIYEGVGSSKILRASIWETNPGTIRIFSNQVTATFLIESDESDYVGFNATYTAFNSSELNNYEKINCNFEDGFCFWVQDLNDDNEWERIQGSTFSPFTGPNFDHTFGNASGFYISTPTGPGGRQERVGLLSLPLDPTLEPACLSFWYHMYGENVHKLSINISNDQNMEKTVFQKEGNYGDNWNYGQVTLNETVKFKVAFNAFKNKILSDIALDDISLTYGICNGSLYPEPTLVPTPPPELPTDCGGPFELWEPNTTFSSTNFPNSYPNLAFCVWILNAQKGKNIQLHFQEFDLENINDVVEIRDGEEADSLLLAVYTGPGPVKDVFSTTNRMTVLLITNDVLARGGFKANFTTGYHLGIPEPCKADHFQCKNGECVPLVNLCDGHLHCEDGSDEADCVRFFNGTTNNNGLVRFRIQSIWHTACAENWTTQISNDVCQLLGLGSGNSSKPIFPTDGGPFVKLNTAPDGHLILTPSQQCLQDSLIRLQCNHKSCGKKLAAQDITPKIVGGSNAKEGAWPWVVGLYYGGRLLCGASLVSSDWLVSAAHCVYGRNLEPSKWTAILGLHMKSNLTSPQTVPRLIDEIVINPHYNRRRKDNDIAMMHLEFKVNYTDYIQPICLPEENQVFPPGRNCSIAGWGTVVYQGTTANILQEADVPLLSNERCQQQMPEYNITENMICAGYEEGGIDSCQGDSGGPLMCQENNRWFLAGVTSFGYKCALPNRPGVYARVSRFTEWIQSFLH
The experiment in a line: Human enteropeptidase inhibitory activity (Test Example 1). The class given is biochemical. As to conditions: 3.3 μM test compound; inhibition rate from fluorescence intensity at 2 hours after the start of the reaction; read-out: 3.3 μM Inhibition. The method, boiled down:
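Recombinant human enteropeptidase in 50 mM Tricine pH 8.0, 0.01% Tween 20, 10 mM CaCl2, with a 5FAM/CPQ2-quenched peptide substrate (2.1 μM solution before mixing). Compound came from 1 mM DMSO stock diluted 100-fold in buffer. Fluorescence (ex 485/em 535 nm) at 2 h gave % inhibition versus no-compound and no-enzyme controls.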
As for `N=C(N)Nc1ccc2c(c1)CCCOc1c(cccc1C(=O)N[C@@H](Cc1ccccc1)C(=O)O)OC2=O` [Example 87, N-((10-carbamimidamido-13-oxo-6,7,8,13-tetrahydro-dibenzo[b,f] [1,4]dioxecin-4-yl)carbonyl)-L-phenylalanine], the inhibition (in general, the change of the read-out against control, counted positive when it falls) at 3.3 µM was 101%.

With `N=C(N)Nc1ccc2c(c1)CCCOc1c(cccc1C(=O)NCCC(=O)O)OC2=O` [Example 88, N-((10-carbamimidamido-13-oxo-6,7,8,13-tetrahydro-dibenzo[b,f] [1,4]dioxecin-4-yl)carbonyl)-beta-alanine], the inhibition at 3.3 µM was found to be 102%.

For `N=C(N)Nc1ccc2c(c1)CCCOc1c(cccc1C(=O)NCC(=O)O)OC2=O` [Example 89, N-((10-carbamimidamido-13-oxo-6,7,8,13-tetrahydro-dibenzo[b,f] [1,4]dioxecin-4-yl)carbonyl)glycine], the inhibition at 3.3 µM stood at 101%.

Regarding `C[C@@H](O)[C@H](NC(=O)c1cccc2c1OCCCc1cc(NC(=N)N)ccc1C(=O)O2)C(=O)O` [Example 90, N-((10-carbamimidamido-13-oxo-6,7,8,13-tetrahydro-dibenzo[b,f] [1,4]dioxecin-4-yl)carbonyl)-L-threonine], the inhibition at 3.3 µM was determined as 101%.

Regarding `N=C(N)Nc1ccc2c(c1)CCCOc1c(CCC(=O)O)cccc1OC2=O` [Example 91, 3-(10-Carbamimidamido-13-oxo-6,7,8,13-tetrahydrodibenzo[b,f][1,4]dioxecin-4-yl)propanoic acid trifluoroacetate], the inhibition at 3.3 µM turned out to be 102%.

For the compound `N=C(N)Nc1ccc2c(c1)CCCOc1c(cccc1C(=O)N(CC(=O)O)[C@@H](Cc1ccc(O)cc1)C(=O)O)OC2=O` [Example 92, N-((10-carbamimidamido-13-oxo-6,7,8,13-tetrahydro-dibenzo[b,f] [1,4]dioxecin-4-yl)carbonyl)-N-(carboxymethyl)-L-tyrosine], the inhibition at 3.3 µM is 101%.

As to `N=C(N)Nc1ccc2c(c1)CCCOc1c(CCC(=O)N[C@@H](CCC(=O)O)C(=O)O)cccc1OC2=O` [Example 93, N-(3-(10-carbamimidamido-13-oxo-6,7,8,13-tetrahydro-dibenzo[b,f] [1,4]dioxecin-4-yl)propanoyl)-L-glutamic acid], the inhibition at 3.3 µM came to 100%.

In the case of `N=C(N)Nc1ccc2c(c1)CCCOc1c(CCC(=O)N[C@@H](Cc3ccc(O)cc3)C(=O)O)cccc1OC2=O` [Example 95, N-(3-(10-carbamimidamido-13-oxo-6,7,8,13-tetrahydro-dibenzo[b,f] [1,4]dioxecin-4-yl)propanoyl)-L-tyrosine], the inhibition at 3.3 µM came to 101%.

Consider `N=C(N)Nc1ccc2c(c1)CCCOc1c(CCC(=O)NC(CC(=O)O)CC(=O)O)cccc1OC2=O` [Example 96, 3-((3-(10-carbamimidamido-13-oxo-6,7,8,13-tetrahydro-dibenzo[b,f] [1,4]dioxecin-4-yl)propanoyl)amino) pentanedioic acid], for which the inhibition at 3.3 µM worked out at 101%.

Turning to `N=C(N)Nc1ccc2c(c1)CCCOc1c(CCC(=O)N[C@@H](CC(N)=O)C(=O)O)cccc1OC2=O` [Example 97, N^~2^~-(3-(10-carbamimidamido-13-oxo-6,7,8,13-tetrahydro-dibenzo[b,f] [1,4]dioxecin-4-yl)propanoyl)-L-asparagine], the inhibition at 3.3 µM stood at 100%.

Regarding `N=C(N)c1ccc2c(c1)CCCCc1c(C(=O)N[C@@H](CC(=O)O)C(=O)O)cccc1C(=O)O2` [Example 98, N-((10-carbamimidoyl-14-oxo-5,7,8,14-tetrahydro-6H-dibenzo[b,h]oxecin-4-yl)carbonyl)-L-aspartic acid], the inhibition at 3.3 µM amounted to 95%.

With `N=C(N)Nc1ccc2c(c1)CCCOc1c(cccc1C(=O)N1CCC[C@H]1C(=O)N[C@@H](CC(=O)O)C(=O)O)OC2=O` [Example 99, 1-((10-Carbamimidamido-13-oxo-6,7,8,13-tetrahydrodibenzo[b,f][1,4]dioxecin-4-yl)carbonyl)-L-prolyl-L-aspartic acid], the inhibition at 3.3 µM came to 100%.

For the compound `N=C(N)Nc1ccc2c(c1)CCCOc1c(cccc1C(=O)NCC(=O)N[C@@H](CC(=O)O)C(=O)O)OC2=O` [Example 100, N-((10-carbamimidamido-13-oxo-6,7,8,13-tetrahydro-dibenzo[b,f] [1,4]dioxecin-4-yl)carbonyl)glycyl-L-aspartic acid], the inhibition at 3.3 µM was determined as 101%.

In the case of `N=C(N)Nc1ccc2c(c1)CCCOc1c(cccc1C(=O)N1CCC(C(=O)N[C@@H](CC(=O)O)C(=O)O)CC1)OC2=O` [Example 101, N-((1-((10-carbamimidamido-13-oxo-6,7,8,13-tetrahydro-dibenzo[b,f] [1,4]dioxecin-4-yl)carbonyl)-piperidin-4-yl)carbonyl)-L-aspartic acid], the inhibition at 3.3 µM is 100%.

As for `CN(C(=O)CCc1cccc2c1OCCCc1cc(NC(=N)N)ccc1C(=O)O2)[C@@H](CC(=O)O)C(=O)O` [Example 102, N-(3-(10-carbamimidamido-13-oxo-6,7,8,13-tetrahydro-dibenzo[b,f] [1,4]dioxecin-4-yl)propanoyl)-N-methyl-L-aspartic acid], the inhibition at 3.3 µM turned out to be 101%.

As to `CN(CC(=O)N[C@@H](CC(=O)O)C(=O)O)C(=O)c1cccc2c1OCCCc1cc(NC(=N)N)ccc1C(=O)O2` [Example 103, N-((10-carbamimidamido-13-oxo-6,7,8,13-tetrahydro-dibenzo[b,f] [1,4]dioxecin-4-yl)carbonyl)-N-methylglycyl-L-aspartic acid], the inhibition at 3.3 µM is 101%.

In the case of `N=C(N)Nc1ccc2c(c1)CCCOc1c(cccc1C(=O)N(CC(=O)O)[C@@H](CC(=O)O)C(=O)O)OC2=O` [Example 104, N-((10-Carbamimidamido-13-oxo-6,7,8,13-tetrahydrodibenzo[b,f][1,4]dioxecin-4-yl)carbonyl)-N-(carboxymethyl)-L-aspartic acid], the inhibition at 3.3 µM is 100%.

For the compound `CN(CC(=O)N(C)[C@@H](CC(=O)O)C(=O)O)C(=O)c1cccc2c1OCCCc1cc(NC(=N)N)ccc1C(=O)O2` [Example 105, N-((10-carbamimidamido-13-oxo-6,7,8,13-tetrahydro-dibenzo[b,f] [1,4]dioxecin-4-yl)carbonyl)-N-methylglycyl-N-methyl-L-aspartic acid], the inhibition at 3.3 µM worked out at 101%.

Take `N=C(N)Nc1ccc2c(c1)CCCOc1c(cccc1C(=O)N(CC(=O)O)C(CC(=O)O)CC(=O)O)OC2=O` [Example 106, 3-(((10-Carbamimidamido-13-oxo-6,7,8,13-tetrahydrodibenzo[b,f][1,4]dioxecin-4-yl)carbonyl) (carboxymethyl)amino)pentanedioic acid]: the inhibition at 3.3 µM amounted to 100%.

For `N=C(N)Nc1ccc2c(c1)CCCOc1c(cccc1C(=O)N(Cc1ccccc1)[C@@H](CC(=O)O)C(=O)O)OC2=O` [Example 107, N-benzyl-N-((10-carbamimidamido-13-oxo-6,7,8,13-tetrahydro-dibenzo[b,f] [1,4]dioxecin-4-yl)carbonyl)-L-aspartic acid], the inhibition at 3.3 µM came out at 101%.

As for `N=C(N)Nc1ccc2c(c1)CCCOc1c(cccc1C(=O)N(CC(=O)O)[C@@H](Cc1ccc(OCCN(CC(=O)O)CC(=O)O)cc1)C(=O)O)OC2=O` [Example 108, O-(2-(Bis(carboxymethyl)amino)ethyl)-N-((10-carbamimidamido-13-oxo-6,7,8,13-tetrahydrodibenzo[b,f][1,4]dioxecin-4-yl)carbonyl)-N-(carboxymethyl)-L-tyrosine], the inhibition at 3.3 µM was determined as 100%.

Turning to `COCCN(C(=O)c1cccc2c1OCCCc1cc(NC(=N)N)ccc1C(=O)O2)[C@@H](CC(=O)O)C(=O)O` [Example 109, N-((10-carbamimidamido-13-oxo-6,7,8,13-tetrahydro-dibenzo[b,f] [1,4]dioxecin-4-yl)carbonyl)-N-(2-methoxyethyl)-L-aspartic acid], the inhibition at 3.3 µM was 100%.

As to `N=C(N)Nc1ccc2c(c1)CCCOc1c(ccc(CCC(=O)O)c1C(=O)N[C@@H](CC(=O)O)C(=O)O)OC2=O` [Example 110, N-((10-Carbamimidamido-3-(2-carboxyethyl)-13-oxo-6,7,8,13-tetrahydrodibenzo[b,f][1,4]dioxecin-4-yl)carbonyl)-L-aspartic acid], the inhibition at 3.3 µM is 100%.

`N=C(N)Nc1ccc2c(c1)CCCOc1c(ccc(CCC(=O)O)c1C(=O)O)OC2=O` [Example 111, 10-carbamimidamido-3-(2-carboxyethyl)-13-oxo-6,7,8,13-tetrahydro-dibenzo[b,f] [1,4]dioxecine-4-carboxylic acid]: the inhibition at 3.3 µM is 100%.

For `COc1ccc(C[C@H](NC(=O)c2c(CCC(=O)O)ccc3c2OCCCc2cc(NC(=N)N)ccc2C(=O)O3)C(=O)O)cc1` [Example 112, N-((10-carbamimidamido-3-(2-carboxyethyl)-13-oxo-6,7,8,13-tetrahydro-dibenzo[b,f] [1,4]dioxecin-4-yl)carbonyl)-O-methyl-L-tyrosine], the inhibition at 3.3 µM worked out at 99%.

Turning to `N=C(N)Nc1ccc2c(c1)CCCOc1c(ccc(CCC(=O)O)c1C(=O)N[C@@H](Cc1ccc(O)cc1)C(=O)O)OC2=O` [Example 113, N-((10-carbamimidamido-3-(2-carboxyethyl)-13-oxo-6,7,8,13-tetrahydro-dibenzo[b,f] [1,4]dioxecin-4-yl)carbonyl)-L-tyrosine], the inhibition at 3.3 µM was 99%.

`N#Cc1cc2c(c(C(=O)N[C@@H](CC(=O)O)C(=O)O)c1)OCCCc1cc(NC(=N)N)ccc1C(=O)O2` [Example 114, N-((10-Carbamimidamido-2-cyano-13-oxo-6,7,8,13-tetrahydrodibenzo[b,f][1,4]dioxecin-4-yl)carbonyl)-L-aspartic acid]: the inhibition at 3.3 µM was 99%.

Turning to `N=C(N)Nc1ccc2c(c1)CCCOc1c(cccc1C(=O)N(CC(=O)O)CC(=O)N(CC(=O)O)CC(=O)O)OC2=O` [Example 115, ((2-(Bis(carboxymethyl)amino)-2-oxoethyl) ((10-carbamimidamido-13-oxo-6,7,8,13-tetrahydrodibenzo[b,f][1,4]dioxecin-4-yl)carbonyl)amino)acetic acid], the inhibition at 3.3 µM is 99%.
